Data published in US12398111B2, “Triazine compounds and pharmaceutical use thereof” (Japan Tobacco Inc., priority 2014, dated 2025).

The compounds below were run against T1, human mPGES-1 (Homo sapiens, UniProt O14684) (assay: Evaluation of human mPGES-1 enzyme inhibitory activity (PGE2 measured by HTRF, microsome fraction of CHO-S cells expressing human mPGES-1)). Details: IC50 value; microsome fraction of CHO-S cells expressing human mPGES-1, PGE2 by HTRF.
T1 construct: made in house; host or cells: FreeStyle CHO-S cells (Chinese hamster ovary), transient transfection with pcDNA3.1(+)/human mPGES-1; microsome fraction used
T1 sequence (O14684 1-152): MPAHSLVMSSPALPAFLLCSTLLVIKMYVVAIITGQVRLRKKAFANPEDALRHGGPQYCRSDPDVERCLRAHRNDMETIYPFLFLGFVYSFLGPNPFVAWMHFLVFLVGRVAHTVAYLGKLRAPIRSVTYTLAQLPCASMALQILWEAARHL
Assay type: biochemical
Experimental: That is, the amount of PGE2 produced by human mPGES-1 in the presence of a test article was measured by the HTRF (homogeneous time resolved fluorescence) method, based on which the human mPGES-1 enzyme inhibitory activity of the test article was determined.
1) Preparation of Human mPGES-1 Expressing Cell Microsome Fraction
A DNA fragment containing human mPGES-1, which is added with a BamHI recognition cleavage sequence immediately before the translation initiation codon and an EcoRI recognition cleavage sequence immediately after the translation termination codon was amplified by the PCR (Polymerase Chain Reaction) method using a human mPGES-1 expression plasmid DNA (pME-18S/iPGES-1) prepared in-house as a template. The purified DNA fragment was digested with BamHI and EcoRI, and ligated to pcDNA3.1(+) (Invitrogen, model number V790-20), similarly digested with BamHI and EcoRI, by using a DNA Ligation kit ver.2.1 (Takara Bio, model number 6022). The human mPGES-1 expression plasmid DNA was isolated from Escherichia coli DH5a (TOYOBO, model number DNA-903) transformed with the obtained ligation product. The base sequence of human mPGES-1 cloned to a vector was determined by the Dye Terminator method by using BigDye Terminator v3.1 Cycle Sequencing Kit (Applied Biosystems, #4337455).
Human mPGES-1 expression plasmid DNA was transfected into Chinese hamster ovary-derived cells (FreeStyle CHO-S Cell, Invitrogen, #R800-07) by using a transgene reagent (FreeStyle MAX Reagent (Invitrogen, #16447-100)), and cultured with shaking (8% CO2, 37° C.) in a medium containing 8 mmol/L L-glutamine (GIBCO FreeStyle CHO Expression Medium, Invitrogen, #12651-022) for 48 hr.
The CHO-S cells were suspended in Homogenate Buffer (100 mmol/L potassium phosphate (pH 7.4), 250 mmol/L Sucrose, 100 mmol/L EDTA, complete EDTA free (Roche, #1873580)). Using an ultrasonic disruptor UD-201 (Tomy Seiko), the suspended cells were disrupted at output:3, duty cycle:50 for 30 seconds. The precipitate was removed by centrifugation (1,000×g, 5 min, 4° C.), is and the supernatant was centrifuged (5,000×g, 10 min, 4° C.). The supernatant was further centrifuged (105,000×g, 60 min, 4° C.). The obtained precipitate was suspended in Resuspension Buffer (100 mmol/L potassium phosphate (pH 7.4), 250 mmol/L sucrose, 100 mmol/L EDTA, 10% glycerol) to give a microsome fraction.
The protein concentration of the microsome fraction was measured by the Bradford method (Protein Assay Kit, Bio-Rad). The microsome fraction was rapidly frozen in liquid nitrogen and preserved at −80° C. Human mPGES-1 in the microsome fraction was detected by Western Blot using rabbit anti-mPGES-1 polyclonal antibody (ThermoFisher Scientific, #PA1-10264).
2) Evaluation of Human mPGES-1 Enzyme Inhibitory Activity
A test article solution diluted with 0.1 mol/L potassium phosphate, pH 7.4 (hereinafter to be referred to as KPB) or DMSO (Nacalai Tesque, #13407-45) was added at 5 μL/well to 96 well V-bottom plate (Corning, #3363). The final DMSO concentration during the reaction was set to 2% (v/v). Furthermore, a microsome fraction of CHO-S cells expressing human mPGES-1, which was diluted with reduced GSH (12.5 mmol/L KPB solution, SIGMA, #G6529-25G) such that the protein concentration was 5 μg/mL, was added at 20 μL/well. The amount of the microsome fraction used is the amount of microsome fraction within a range where the amount of PGE2 produced under the reaction conditions shown below and the amount of microsome fraction used show linearity. To the blank was added reduced GSH (12.5 mmol/L KPB solution) at 20 μL/well.
Compound CCO[C@@](C)(C(=O)NCc1ccc(Cl)c(-c2nc(O)nc(-c3ccccc3)n2)c1)C(F)(F)F [Example 1-97] has an IC50 of 9100 pM.
CC(C)(C(=O)NCc1ccc(Cl)c(-c2nc(O)nc(-c3cccc(OCC(F)(F)F)c3)n2)c1)C(F)(F)F [Example 1-99] gave an IC50 of 700 pM.
CC(C)(C(=O)NCc1ccc(Cl)c(-c2nc(O)nc(-c3cccc(C4CCC4)c3)n2)c1)C(F)(F)F [Example 1-100] was tested, and the IC50 was 900 pM.
CC(C)Cc1ccc(-c2nc(O)nc(-c3cc(CC(=O)NC(C)(C)C)ccc3Cl)n2)cc1 [Example 1-101] was tested, and the IC50 was 5800 pM.
Work on CCCc1cccc(-c2nc(O)nc(-c3cc(CNC(=O)C(C)(C)C(F)(F)F)ccc3Cl)n2)c1 [Example 1-102] yielded an IC50 of 900 pM.
CO[C@](C)(C(=O)NCc1ccc(Cl)c(-c2nc(O)nc(-c3cccc(OC(F)(F)F)c3)n2)c1)C(F)(F)F [Example 1-103] was tested, and the IC50 was 1300 pM.
Work on CCCc1cccc(-c2nc(O)nc(-c3cc(CNC(=O)[C@@](C)(OC)C(F)(F)F)ccc3Cl)n2)c1 [Example 1-104] yielded an IC50 of 1500 pM.
Work on CO[C@](C)(C(=O)NCc1ccc(Cl)c(-c2nc(O)nc(-c3ccc(C)c(F)c3)n2)c1)C(F)(F)F [Example 1-105] yielded an IC50 of 700 pM.
Compound CO[C@](C)(C(=O)NCc1ccc(Cl)c(-c2nc(O)nc(-c3ccc(F)c(C)c3)n2)c1)C(F)(F)F [Example 1-106] has an IC50 of 700 pM.
CC(C)c1cccc(-c2nc(O)nc(-c3cc(CNC(=O)C(C)(C)C(F)(F)F)ccc3Cl)n2)c1 [Example 1-107] showed an IC50 of 1200 pM.
In the case of CO[C@](C)(C(=O)NCc1ccc(Cl)c(-c2nc(O)nc(-c3cccc(C(C)C)c3)n2)c1)C(F)(F)F [Example 1-108], the IC50 is reported as 600 pM.
Compound CCc1cccc(-c2nc(O)nc(-c3cc(CNC(=O)C(C)(C)C(F)(F)F)ccc3Cl)n2)c1 [Example 1-110] has an IC50 of 900 pM.
Compound Cc1cccc(-c2nc(O)nc(-c3cc(CNC(=O)C(C)(C)C(F)(F)F)ccc3Cl)n2)c1 [Example 1-111] has an IC50 of 1200 pM.
Compound Cc1cc(-c2nc(O)nc(-c3cc(CNC(=O)C(C)(C)C(F)(F)F)ccc3Cl)n2)ccc1Cl [Example 1-112] has an IC50 of 900 pM.
In the case of CC(C)(C(=O)NCc1ccc(Cl)c(-c2nc(O)nc(-c3ccc(OCC(F)(F)F)cc3)n2)c1)C(F)(F)F [Example 1-113], the IC50 is reported as 900 pM.
For CC(C)CCOc1ccc(-c2nc(O)nc(-c3cc(CNC(=O)C(C)(C)C(F)(F)F)ccc3Cl)n2)cc1 [Example 1-114], the IC50 was 5900 pM.
Work on CSc1ccc(-c2nc(O)nc(-c3cc(CNC(=O)C(C)(C)C(F)(F)F)ccc3Cl)n2)cc1 [Example 1-115] yielded an IC50 of 600 pM.
CC(C)(C(=O)NCc1ccc(Cl)c(-c2nc(O)nc(-c3ccc(OCC4CCC4)cc3)n2)c1)C(F)(F)F [Example 1-116] was tested, and the IC50 was 2000 pM.
CC(C)c1cc(-c2nc(O)nc(-c3cc(CNC(=O)C(C)(C)C(F)(F)F)ccc3Cl)n2)ccc1F [Example 1-117] gave an IC50 of 1600 pM.
With CCCc1cc(-c2nc(O)nc(-c3cc(CNC(=O)C(C)(C)C(F)(F)F)ccc3Cl)n2)ccc1F [Example 1-118] the IC50 was 1900 pM.
Compound CC(F)(F)c1ccc(-c2nc(O)nc(-c3cc(CNC(=O)C(C)(C)C(F)(F)F)ccc3Cl)n2)cc1 [Example 1-119] has an IC50 of 1000 pM.
With CC(C)COc1ccc(-c2nc(O)nc(-c3cc(CNC(=O)C(C)(C)C(F)(F)F)ccc3Cl)n2)cc1C(F)(F)F [Example 1-120] the IC50 was 48000 pM.
For CCc1cccc(-c2nc(O)nc(-c3cc(CNC(=O)[C@@](C)(OC)C(F)(F)F)ccc3Cl)n2)c1 [Example 1-121], the IC50 was 1200 pM.
CO[C@](C)(C(=O)NCc1ccc(Cl)c(-c2nc(O)nc(-c3ccc(OCC(C)C)cc3)n2)c1)C(F)(F)F [Example 1-123] gave an IC50 of 2300 pM.
Compound CCc1cc(-c2nc(O)nc(-c3cc(CNC(=O)C(C)(C)C(F)(F)F)ccc3Cl)n2)ccc1F [Example 1-124] has an IC50 of 900 pM.
With Cc1cc(-c2nc(O)nc(-c3cc(CNC(=O)C4(C(F)(F)F)CCC4)ccc3Cl)n2)ccc1F [Example 1-125] the IC50 was 800 pM.
CO[C@](C)(C(=O)NCc1ccc(Cl)c(-c2nc(O)nc(-c3ccc(C(F)(F)F)cc3)n2)c1)C(F)(F)F [Example 1-126] gave an IC50 of 800 pM.
Cc1cc(-c2nc(O)nc(-c3cc(CNC(=O)C4(C(F)(F)F)CC4)ccc3Cl)n2)ccc1F [Example 1-127] gave an IC50 of 800 pM.
CCOc1ccc(-c2nc(O)nc(-c3cc(CNC(=O)C(C)(C)C(F)(F)F)ccc3Cl)n2)cc1 [Example 1-132] was tested, and the IC50 was 300 pM.
For CC(C)(C(=O)NCc1ccc(Cl)c(-c2nc(O)nc(-c3ccc(OCC4CC4)cc3)n2)c1)C(F)(F)F [Example 1-133], the IC50 was 500 pM.
For CC(C)(C(=O)NCc1ccc(Cl)c(-c2nc(O)nc(-c3ccc(O)cc3)n2)c1)C(F)(F)F [Example 1-134], the IC50 was 4000 pM.
In the case of CO[C@](C)(C(=O)NCc1ccc(Cl)c(-c2nc(O)nc(-c3ccc(C(C)(F)F)cc3)n2)c1)C(F)(F)F [Example 1-138], the IC50 is reported as 500 pM.
Compound COc1ccc(-c2nc(O)nc(-c3cc(CNC(=O)C(C)(C)C(F)(F)F)ccc3Cl)n2)cc1 [Example 1-139] has an IC50 of 600 pM.
For CC(C)Oc1ccc(-c2nc(O)nc(-c3cc(CNC(=O)C(C)(C)C(F)(F)F)ccc3Cl)n2)cc1 [Example 1-140], the IC50 was 500 pM.
CC(C)(C(=O)NCc1ccc(Cl)c(-c2nc(O)nc(-c3ccc(OC4CCC4)cc3)n2)c1)C(F)(F)F [Example 1-141] was tested, and the IC50 was 1100 pM.
CC(C)(C(=O)NCc1ccc(Cl)c(-c2nc(O)nc(-c3ccc(OCCC(F)(F)F)cc3)n2)c1)C(F)(F)F [Example 1-142] was tested, and the IC50 was 500 pM.
With CC1(COc2ccc(-c3nc(O)nc(-c4cc(CNC(=O)C(C)(C)C(F)(F)F)ccc4Cl)n3)cc2)CCC1 [Example 1-143] the IC50 was 1000 pM.
For COCCOc1ccc(-c2nc(O)nc(-c3cc(CNC(=O)C(C)(C)C(F)(F)F)ccc3Cl)n2)cc1 [Example 1-144], the IC50 was 900 pM.
CCC1(COc2ccc(-c3nc(O)nc(-c4cc(CNC(=O)C(C)(C)C(F)(F)F)ccc4Cl)n3)cc2)COC1 [Example 1-145] was tested, and the IC50 was 500 pM.
Work on CC#CCOc1ccc(-c2nc(O)nc(-c3cc(CNC(=O)C(C)(C)C(F)(F)F)ccc3Cl)n2)cc1 [Example 1-146] yielded an IC50 of 400 pM.
Cc1cc(-c2nc(O)nc(-c3cc(CNC(=O)C(C)(C)C(F)(F)F)ccc3Cl)n2)ccc1C(F)(F)F [Example 1-147] gave an IC50 of 800 pM.
Work on CO[C@](C)(C(=O)NCc1ccc(Cl)c(-c2nc(O)nc(-c3ccc(C(F)(F)F)c(C)c3)n2)c1)C(F)(F)F [Example 1-148] yielded an IC50 of 1700 pM.
Work on Cc1cc(-c2nc(O)nc(-c3cc(CNC(=O)C4(C(F)(F)F)CC4)ccc3Cl)n2)ccc1C(F)(F)F [Example 1-149] yielded an IC50 of 800 pM.
Compound CCc1cc(-c2nc(O)nc(-c3cc(CNC(=O)[C@@](C)(OC)C(F)(F)F)ccc3Cl)n2)ccc1F [Example 1-151] has an IC50 of 400 pM.
In the case of CCc1cc(-c2nc(O)nc(-c3cc(CNC(=O)C4(C(F)(F)F)CC4)ccc3Cl)n2)ccc1F [Example 1-152], the IC50 is reported as 400 pM.
In the case of CC(C)(C(=O)NCc1ccc(Cl)c(-c2nc(O)nc(-c3ccc(F)c(Cl)c3)n2)c1)C(F)(F)F [Example 1-153], the IC50 is reported as 500 pM.
In the case of CCCOc1ccc(-c2nc(O)nc(-c3cc(CNC(=O)C4(C(F)(F)F)CC4)ccc3Cl)n2)cc1 [Example 1-154], the IC50 is reported as 500 pM.
For CCC[C@H](C)Oc1ccc(-c2nc(O)nc(-c3cc(CNC(=O)C(C)(C)C(F)(F)F)ccc3Cl)n2)cc1 [Example 1-155], the IC50 was 3500 pM.
For CCC[C@@H](C)Oc1ccc(-c2nc(O)nc(-c3cc(CNC(=O)C(C)(C)C(F)(F)F)ccc3Cl)n2)cc1 [Example 1-156], the IC50 was 4100 pM.
